Our source for the IC50 values is patent US5063229A, “Imidazolo [1,2-a]pyrimidines and medical use thereof” (Roussel Ulcaf, priority 1986, dated 1991).

For the experiment, the system named is rat peritoneal neutrophils. The experiment can be described thus: Inhibition of ionophore-stimulated release of free arachidonic acid from [14C]-arachidonic acid pre-labelled rat peritoneal neutrophils. In kind it is cell-based. Particulars: read-out: IC50, concentration required to inhibit by 50% compared to controls the release of radiolabelled products into supernatant liquid. The text has this: The inhibition of ionophore-stimulated release of free arachidonic acid from [^14 C]-arachidonic acid pre-labelled rat peritoneal neutrophils was studied using modifications of the method of Ahnfelt-Ronne and Arrigoni-Martelli [Biochemical Pharmacol., (1982) Vol. 31, p. 2619]. The results below show the micromolar concentrations of test compound required to inhibit, by 50% compared to controls, the release of radiolabelled products into supernatant liquid (IC50 -μM).
`C=C(C)C(=O)c1nc2nc(SC)c(CC)c(C)n2c1Br` [Example 1, 1-(3-bromo-6-ethyl-5-methyl-7-methylthio-imidazo[1,2-a]pyrimidin-2-yl)-2-methyl-2-propen-1-one]: the IC50 was determined as 6.8 µM.

In the case of `C=C(C)C(=O)c1nc2nc(OC)c(CC)c(C)n2c1Br` [Example 2, (3-bromo 6-ethyl 7-methoxy 5-methylimidazo [1,2-a]pyrimidin-2-yl) isopropenyl methanone], the IC50 was found to be 17 µM.

With `C=C(C)C(=O)c1nc2nc(OC)c(CC)c(C)n2c1Cl` [Example 3, (3-chloro 6-ethyl 7-methoxy 5-methylimidazo [1,2-a]pyrimidin-2-yl) isopropenyl methanone], the IC50 worked out at 21 µM.

On to `C=C(C)C(=O)c1nc2nc(OC)cc(C)n2c1Br` [Example 4], for which the IC50 turned out to be 7.4 µM.

For `C=CC(=O)c1nc2nc(OC)c(CC)c(C)n2c1Br` [Example 5, (3-bromo 6-ethyl 7-methoxy 5-methylimidazo [1,2-a]pyrimidin-2-yl) ethenyl methanone], the IC50 turned out to be 1.7 µM.

Take `C=C(C)C(=O)c1cn(-c2ccc(CC)cc2)c(SC)n1` [Example 6, [1-(4-ethylphenyl) 2-imidazol-4-yl] isopropenyl methanone]: the IC50 stood at 3.8 µM.

As for `C=C(C)C(=O)c1nc(SC)n(-c2ccc(CC)cc2)c1Br` [Example 7, [1-(4-ethylphenyl) 5-bromo 2-thiomethylimidazol-4-yl] isopropenyl methanone], the IC50 is 2.5 µM.

Take `C=C(C)C(=O)c1nc(SC)n(-c2ccc(OC)cc2)c1Br` [Example 8, [1-(4-methoxyphenyl) 5-bromo 2-thiomethylimidazol-4-yl] isopropenyl methanone]: the IC50 came out at 7.2 µM.

Regarding `C=C(C)C(=O)c1nc(SC)n(-c2ccc(OC)cc2)c1Cl` [Example 9, [1-(4-methoxyphenyl) 5-chloro 2-thiomethylimidazol-4-yl] isopropenyl methanone], the IC50 was determined as 9.1 µM.

For the molecule `C=C(C)C(=O)c1nc(SC)n(-c2ccc(C)cc2)c1Br` [Example 10, [1-(4-methylphenyl) 5-bromo 2-thiomethylimidazol-4-yl] isopropenyl methanone], the IC50 came to 10 µM.

With `C=C(C)C(=O)c1nc(SC(C)C)n(-c2ccc(C)cc2)c1Br` [Example 11, [1-(4-methylphenyl) 5-bromo 2-thioisopropylimidazol-4-yl] isopropenyl methanone], the IC50 came out at 3.7 µM.

`C=C(C)C(=O)c1nc(SC)n(-c2ccc(F)cc2)c1Br` [Example 12, [1-(4-fluorophenyl) 5-bromo 2-thiomethylimidazol-4-yl] isopropenyl methanone]: the IC50 was determined as 15 µM.

Regarding `C=CC(=O)c1nc(SC)n(-c2ccc(OC)cc2)c1Br` [Example 13, [1-(4-methoxyphenyl) 5-bromo 2-thiomethylimidazol-4-yl] ethenyl methanone], the IC50 is 2.3 µM.

For the molecule `C=C(C)C(=O)c1nc(SC)n(-c2ccc(O)cc2)c1Br` [Example 14, [5-bromo-1-(4-hydroxyphenyl)-2-methylthioimidazol-4-yl]-2-methyl-2-propen-1-one], the IC50 was above 10 µM.

As to `C=C(C)C(=O)c1nc(SC(C)C)n(CC)c1Br` [Example 15, (1-ethyl 5-bromo 2-thioisopropyl imidazol-4-yl) isopropenyl methanone], the IC50 came out at 17 µM.

With `C=C(C)C(=O)c1nc([S+]([O-])C(C)C)n(-c2ccc(CC)cc2)c1Cl` (stereo not drawn) [Example 16, [5-chloro-1-(4-ethylphenyl)-2-(prop-2-ylsulfinyl)-imidazol-4-yl]-2-methyl-2-propen-1-one], the IC50 amounted to 4.4 µM.

As for `CCc1c(OC)nc2nc(C(=O)C#Cc3ccccc3)cn2c1C` [Example 18, (6-ethyl 7-methoxy 5-methylimidazo [1,2-a]pyrimidin-2-yl) phenylethynyl methanone], the IC50 amounted to 12 µM.

`CCc1c(OC)nc2nc(C(=O)C#CC(C)(C)C)cn2c1C` [Example 19, 1-(6-ethyl 7-methoxy 5-methylimidazo [1,2-a]pyrimidin-2-yl) (3,3-dimethylbut-1-ynyl) methanone]: the IC50 came out at 16 µM.

As to `CCc1c(OC)nc2nc(C(=O)C#CC(C)(C)C)c(Br)n2c1C` [Example 20, (3-bromo 6-ethyl 7-methoxy 5-methylimidazo [1,2-a]pyrimidin-2-yl) (3,3-dimethylbut-1-ynyl) methanone], the IC50 was found to be 4.2 µM.

As for `CCc1c(OC)nc2nc(C(=O)C#Cc3ccccc3)c(Br)n2c1C` [Example 21, (3-bromo 6-ethyl 7-methoxy 5-methylimidazo [1,2-a]pyrimidin-2-yl) (2-phenylethy-1-yl) methanone], the IC50 came out at 1.5 µM.

For `CCc1c(OC)nc2nc(C(=O)C#CCO)c(Br)n2c1C` [Example 22, 1-(3-bromo-6-ethyl-7-methoxy-5-methyl-imidazo[1,2-a]pyrimidin-2-yl)-4-hydroxy-2-butyn-1-one], the IC50 was 59 µM.

Regarding `CCc1c(OC)nc2nc(C(=O)C#CCO)cn2c1C` [Example 23, 1-(6-ethyl-7-methoxy-5-methylimidazo[1,2-a]pyrimidin-2-yl)-4-hydroxy-2-butyn-1-one], the IC50 was 46 µM.

`CC#CC(=O)c1nc2nc(OC)c(CC)c(C)n2c1Br` [Example 24, (3-bromo 6-ethyl 7-methoxy 5-methylimidazo [1,2-a]pyrimidin-2-yl) (propyn-1-ynyl) methanone]: the IC50 stood at 7.2 µM.

Regarding `C=C(C)C(=O)c1nc2ccccn2c1Br` [Example 25, (3-bromoimidazo [1,2-a]pyridin-2-yl) isopropenyl methanone (chlorhydrate)], the IC50 is 28 µM.

Take `C=C(C)C(=O)c1cn2ccccc2n1` [Example 26, (imidazo [1,2-a]pyridin-2-yl) isopropenyl methanone]: the IC50 was above 100 µM.

In the case of `O=C(C#Cc1ccccc1)c1cn2ccccc2n1` [Example 27, (imidazo [1,2-a]pyridin-2-yl) (2-phenylethyn-1-yl) methanone], the IC50 is 41 µM.

For the molecule `O=C(C#Cc1ccccc1)c1nc2ccccn2c1Br` [Example 28, 3-bromoimidazo [1,2-a] pyridin-2-yl (2-phenylethyn-1-yl) methanone], the IC50 came to 5.2 µM.
